# Tests used:
# VEGF = VEGF level in serum by ELISA, psoriasis model rats; format: in vivo, SD male rats; conditions: 7 days, vs model control group
# Protocol: (§1) 60 SPF-grade SD male rats in the second animal group are divided into 6 groups: a blank control group, a model control group, an anemoside B4 intragastric administration group (5 mg/kg), an anemoside B4 intragastric administration group (10 mg/kg), an anemoside B4 intragastric administration group (20 mg/kg), and an acitretin intragastric administration group (5 mg/kg), and are respectively expressed into the blank control group, the model group, anemoside B4 5 mg/kg, anemoside B4 10 mg/kg, anemoside B4 20 mg/kg, and acitretin 5 mg/kg in FIGS. 3, 4 and 5 for convenience. A shaving area on the back of the rats in each group is 2.5 cm×3 cm, and the vellus is removed with mild depilatory cream. The rats of each group except the blank control group are modeled by administrating 62.5 mg 5% imiquimod cream on the shaving area until the skin is thickened and has erythema and silver scales for modeling completely.
# (§2) 5% imiquimod cream is administrated once a day, and continuously administrated for 8 days for model establishment. On the second day, the rats in each group are continuously intragastric (i.g.) administered drugs for 7 days.
# (§3) After administration, blood is taken from abdominal aorta of the rats in each group of the second animal group, centrifuged to collect the serum, and measured the M-CSF, VEGF, IL-6 and IL-17 level in the serum by ELISA kits according to the procedures of specification.
# IL-6 = IL-6 level in serum by ELISA, psoriasis model rats; format: in vivo, SD male rats; conditions: 7 days, vs model control group
# Protocol: as §1, §2, §3
# [1] = tested on: T lymphocyte subsets of CD4+, CD3+, CD4+/CD8+; experiment: T lymphocyte subsets by flow cytometry, psoriasis model rats; format: in vivo, SD male rats; conditions: 7 days, vs model control group
# Protocol: as §1, §2
# After administration, blood is taken from abdominal aorta of the rats in each group of the second animal group, added erythrocyte lysis buffer, centrifuged to collect T lymphocytes, incubated CD4, CD3 and CD8 antibodies in 4° C., washed with a buffer, centrifuged to collect cells, and is subjected to flow cytometry to measure the ratio of the T lymphocyte subsets.
# spleen = experiment: Spleen coefficient, psoriasis model mice; format: in vivo, BALB/c male mice; conditions: 12 days, compared with model control group
# Protocol: (§4) A shaving area on the back of the mice in each group is 2.5 cm×3 cm, and the vellus is removed with mild depilatory cream. The mice of each group except the blank control group are modeled by administrating 62.5 mg 5% imiquimod cream on the shaving area until the skin is thickened and has erythema and silver scales for modeling completely. During the model establishment, 5% imiquimod cream is administrated once a day, and continuously administrated for 14 days. On the third day, the model establishment is continued and drugs are administered at the same time, wherein the mice in the AC intragastric administration group (8 mg/kg), the anemoside B4 intragastric (i.g.) administration group (5 mg/kg), the anemoside B4 intragastric administration group (10 mg/kg), and the anemoside B4 intragastric administration group (20 mg/kg) are administrated once a day, and continuously administrated for 12 days. […] The mice in the blank control group and the model control group are applied 62.5 mg Vaseline to the skin lesions once a day, and continuously applied for 12 days. The weight of the mice is recorded for counting the weight change of the mice. After blood collection of the mice in each group of the first animal group, the mice are killed by dislocation of cervical vertebra, quickly separated the spleen and weighed to obtain the wet weight of the spleen, recording and calculating the spleen coefficient, wherein the spleen coefficient (%)=(spleen wet weight/body weight)×100%.
# IL-12 = IL-12 level in skin tissue, psoriasis model mice; format: in vivo, BALB/c male mice; conditions: 12 days, compared with model control group
# Protocol: A shaving area on the back of the mice in each group is 2.5 cm×3 cm, and the vellus is removed with mild depilatory cream. The mice of each group except the blank control group are modeled by administrating 62.5 mg 5% imiquimod cream on the shaving area until the skin is thickened and has erythema and silver scales for modeling completely. During the model establishment, 5% imiquimod cream is administrated once a day, and continuously administrated for 14 days. On the third day, the model establishment is continued and drugs are administered at the same time, wherein the mice in the AC intragastric administration group (8 mg/kg), the anemoside B4 intragastric (i.g.) administration group (5 mg/kg), the anemoside B4 intragastric administration group (10 mg/kg), and the anemoside B4 intragastric administration group (20 mg/kg) are administrated once a day, and continuously administrated for 12 days. […] The mice in the blank control group and the model control group are applied 62.5 mg Vaseline to the skin lesions once a day, and continuously applied for 12 days. The weight of the mice is recorded for counting the weight change of the mice. 100 mg skin tissue of the mice in each group of the first animal group are precisely weighed, added 0.9 mL ice normal saline, homogenized with the tissue grinder, and centrifuged at 4° C. and 3000 rpm for 10 min. The supernatant is collected, and IL-12, IL-17, IL-6 and IL-1β level in the skin tissue are measured by kits according to the procedures of specification.
# psoriasis skin lesions = experiment: Histopathological observation of skin (HE staining), psoriasis model mice; format: in vivo, BALB/c male mice; conditions: 12 days
# Protocol: as §4, with “vertebra,” for “vertebra, quickly”, “skin in the skin lesions,” for “spleen”, “removed subcutaneous fat. Taking a part, fixing it with 4% paraformaldehyde, embedding, obtaining section, dying with hematoxylin and eosin (HE), and observing histopathological changes” for “weighed to obtain the wet weight”, “skin under a light microscope.” for “spleen, recording and calculating the spleen coefficient, wherein the spleen coefficient (%)=(spleen wet weight/body weight)×100%.”
# [2] = intragastric 5 mg/kg once a day
# [3] = intragastric 10 mg/kg once a day
# [4] = intragastric 20 mg/kg once a day
smiles,measurement,setting,value
C=C(C)[C@@H]1CC[C@]2(C(=O)O[C@@H]3O[C@H](CO[C@@H]4O[C@H](CO)[C@@H](O[C@@H]5O[C@@H](C)[C@H](O)[C@@H](O)[C@H]5O)[C@H](O)[C@H]4O)[C@@H](O)[C@H](O)[C@H]3O)CC[C@]3(C)[C@H](CC[C@@H]4[C@@]5(C)CC[C@H](O[C@@H]6OC[C@H](O)[C@H](O)[C@H]6O[C@@H]6O[C@@H](C)[C@H](O)[C@@H](O)[C@H]6O)[C@@](C)(CO)[C@@H]5CC[C@]43C)[C@H]12 [anemoside B4],VEGF level in serum,VEGF; intragastric 5 mg/kg,significantly decreased
same,VEGF level in serum,VEGF; intragastric 10 mg/kg,significantly decreased
same,VEGF level in serum,VEGF; intragastric 20 mg/kg,significantly decreased
same,IL-6 level in serum,IL-6; intragastric 5 mg/kg,significantly decreased
same,IL-6 level in serum,IL-6; intragastric 10 mg/kg,significantly decreased
same,IL-6 level in serum,IL-6; intragastric 20 mg/kg,significantly decreased
same,ratio of CD3+ in serum,[1]; intragastric 5 mg/kg,significantly increased
same,ratio of CD4+ in serum,[1]; intragastric 5 mg/kg,significantly increased
same,ratio of CD4+/CD8+ in serum,[1]; intragastric 5 mg/kg,significantly increased
same,ratio of CD3+ in serum,[1]; intragastric 10 mg/kg,significantly increased
same,ratio of CD4+ in serum,[1]; intragastric 10 mg/kg,significantly increased
same,ratio of CD4+/CD8+ in serum,[1]; intragastric 10 mg/kg,significantly increased
same,ratio of CD3+ in serum,[1]; intragastric 20 mg/kg,significantly increased
same,ratio of CD4+ in serum,[1]; intragastric 20 mg/kg,significantly increased
same,ratio of CD4+/CD8+ in serum,[1]; intragastric 20 mg/kg,significantly increased
same,enlargement of the spleen,spleen; [2],significantly relieved
same,spleen coefficient,spleen; [2],significantly decreased
same,enlargement of the spleen,spleen; [3],significantly relieved
same,spleen coefficient,spleen; [3],significantly decreased
same,enlargement of the spleen,spleen; [4],significantly relieved
same,spleen coefficient,spleen; [4],significantly decreased
same,level of IL-12 in the skin tissue,IL-12; [2],significantly reduced
same,level of IL-12 in the skin tissue,IL-12; [3],significantly reduced
same,level of IL-12 in the skin tissue,IL-12; [4],significantly reduced
same,"psoriasis skin lesions, HE staining of skin tissue",psoriasis skin lesions; [2],significantly improved
same,"psoriasis skin lesions, HE staining of skin tissue",psoriasis skin lesions; [3],significantly improved
same,"psoriasis skin lesions, HE staining of skin tissue",psoriasis skin lesions; [4],significantly improved

# Reference: patent US11865129B2, “Application of anemoside B4 in preparation of a drug for treatment or prevention of psoriasis” (GUANGXI XINHAI PHARMACEUTICAL TECHNOLOGY CO., LTD., priority 2021, dated 2024)
